From patent US10905658B2, “Methods and compositions for detecting hematopoietic and lymphoid tissue cancer cells” (WAYNE STATE UNIVERSITY, priority 2016, dated 2021)

Experiments:
[1] = test system: B-NHL cell lines; assay: Treatment of B-NHL cell lines with alkoxyamines (cell killing); assay type: cell-based; conditions: for killing of a B-NHL cell line (cytotoxicity): comparison of alkoxyamines AA3 through AA7, FIG. 17
[2] = test system: APE-1; assay: AP endonuclease activity assay; assay type: biochemical, mammalian; conditions: for protection of AP sites against cleavage by APE-1: alkoxyamine reaction at pH 5
Description: The cleavage activity of AP endonuclease APE-1 (1 unit, New England Biolabs) was assayed using a 6-FAM labeled oligomer (4 pmol) containing a single uracil. The uracil was excised using UDG to create an AP site and the AP site was labeled with an alkoxyamine as described above. The APE-1 reaction was per-formed in the reaction buffer (50 mM potassium acetate, 20 mM Tris-acetate, 10 mM magnesium acetate, 1 mM DTT, pH 7.9) at 37° C. for 1 h. DNA products were stabilized by incubation with NaBH4 and analyzed by gel electrophoresis as described above.

[3] = test system: B-NHL cell lines; assay: Treatment of B-NHL cell lines with alkoxyamines (cell killing); assay type: cell-based; conditions: for effect on cell growth / cell death: B-NHL cells; for cell death: even at 10 mM
Description: A 24 hr treatment with 1 mM AA3 killed greater than 40% cells in each culture and at 10 mM concentration, >70% cells were killed (FIG. 11). […] Therefore, AA3 cytocidal to B-NHL cells while MX and ARP are only cytostatic.

[4] = test system: HeLa cells; assay: Killing of HeLa cells by MMS combined with MX or AA3 (trypan blue exclusion); assay type: cell-based, human
Description: Methyl methanesulfonate (MMS, Sigma-Aldrich) was diluted in phosphate buffered saline. MX or AA3 was dissolved in sterile water, and the pH was adjusted to 7 using NaOH solution. The solutions of all the chemicals were freshly prepared for each cytotoxicity experiment. HeLa cells were seeded in 48-well tissue culture plates at 3×10^4 to 6×10^4 cell/mL and grown overnight in DMEM with 10% fetal bovine serum (HyClone). Cells were treated with MMS or as a combination of MMS with MX or AA3 at indicated concentrations and harvested after 24 h. The viability of the cells was assessed via trypan blue (HyClone) exclusion assay performed using TC20 Automated Cell Counter (Bio-Rad Laboratories).

[5] = test system: AP sites in DNA; assay: AP site labeling reaction on synthetic oligomer (gel shift, click reaction); assay type: biochemical; conditions: for product formation: pH 7
Description: A 6-carboxyfluorescein-(6-FAM-) labeled oligonucleotide U-17-mer (5-6-FAM-ATTATTAUCCATTTATT-3′, […]) was used for the AP site labeling reaction. The oligomer (4 pmol) was incubated with E. coli uracil DNA glycosylase (UDG, 1 unit, New England Labs) at 37° C. for 30 min in reaction buffer containing 20 mM Tris-HCl (pH 8.0), 1 mM DTT and 1 mM EDTA to create AP site containing DNA. The alkoxyamine [methoxyamine, MX (Sigma-Aldrich); aldehyde reactive probe, ARP (Dojindo Laboratories) or AA3] was added into the oligomer solution at indicated concentrations, and incubated at 37° C. for another 30 min. In some experiments, the pH of the solution was adjusted with HCl or NaOH solution following removal of uracil and the pH was confirmed using pH paper. Following the reaction of alkoxyamine, unlabeled AP sites were reduced by the addition of NaBH4 (Sigma-Aldrich) to 100 mM and further incubation for 5 min. If this step was omitted, we observed significant degradation of the DNA. The reactions were stopped by the addition of formamide, loading dye and heating to 95° C. for5 min. The DNAs were electrophoresed in 20% polyacrylamide gels containing 7 M urea and scanned using a Typhoon 9210 phosphorimager (GE Healthcare). Product bands in images were quantified using ImageQuant software. In experiments involving competition between alkoxyamines, AP site containing DNA was reacted with the first alkoxyamine at 37° C. for 30 min. This was followed by the addition of the second alkoxyamine and incubation for an additional 30 min. The reactions were stopped and the products were analyzed as described above.
Biotin azide or Cy5 azide (Lumiprobe) was added to a solution of AA3-linked 17-mer to 0.5 mM followed by the addition of a freshly prepared solution of CuBr/TBTA (1:3 in DMSO/t-BuOH 3:1, 0.5 mM, Sigma-Aldrich). The mixture was shaken at 45° C. for 1 h. The DNAs were electrophoresed and analyzed as described above.

| Compound | protection of AP sites against cleavage by APE-1 [2] [%] | cytocidal or cytostatic to B-NHL cells [3] | effect on cell growth [3] | cell death [3] | killing of a B-NHL cell line (cytotoxicity) [1] | other results |
| --- | --- | --- | --- | --- | --- | --- |
| CCCON [AA4, O-(n-propyl)hydroxylamine] | – | – | – | – | – | killing of a B-NHL cell line ([1]; even at 10 mM, FIG. 17): did not significantly kill the cells |
| CON [MX, methoxyamine] | ~100 | cytostatic | temporary pause in cell growth | did not result in cell death | – | protection of AP sites against APE-1 ([2]; alkoxyamine reaction at pH 7): protected an overwhelming majority of AP sites; enhancement of killing by MMS ([4]; 10 mM with MMS, six independent cultures): did enhance killing by MMS |
| C=CCON [AA7, O-allylhydroxylamine] | – | – | – | – | cytotoxic | – |
| NOCCC(=O)NNC(=O)CCCC[C@@H]1SC[C@@H]2NC(=O)N[C@@H]21 [ARP, N′-(3-(aminooxy)propanoyl)-5-((3aS,4S,6aR)-2-oxohexahydro-H-thieno[3,4-d]imidazol-4-yl)pentanehydrazide] | 74 | cytostatic | temporary pause in cell growth | did not result in cell death | – | DNA cleaved by APE-1 ([2]; AP sites reacted with alkoxyamine at pH 7): about 90%; substrate converted to product ([5]; 0.2 μM oligomer, 5 mM ARP, pH 7 or 8): < 20%; product formation ([5]; 5 mM): 13%; product formation ([5]; 10 mM): 20% |
| COS(C)(=O)=O [MMS, Methyl methanesulfonate] | – | – | – | – | – | loss of viability ([4]; MMS alone, 50 µM, after one day): very little loss of viability |
| C#CCCON [AA5, O-(but-3-yn-1-yl)hydroxylamine] | – | – | – | – | killed these cells | effectiveness in killing relative to AA3 ([1]; a B-NHL cell line): somewhat less effective |
